The source of these data is ChEMBL document CHEMBL3044529, “7-Hydroxy-coumarin derivatives: synthesis, characterization and preliminary antimicrobial activities” (2011).

Each structure is given as a SMILES string. In brackets after ≈: the same amount, converted by molar mass.

Assay type in all cases: functional
One experiment concerns Staphylococcus aureus. Description: Antimicrobial activity against Staphylococcus aureus by macro dilution test.
For the next experiment, the system named is Bacillus subtilis. Description: Antimicrobial activity against Bacillus subtilis by macro dilution test.
In another experiment the test system is Pseudomonas aeruginosa. Description: Antimicrobial activity against Pseudomonas aeruginosa by macro dilution test.
In another experiment the test system is Escherichia coli. Briefly: Antimicrobial activity against Escherichia coli by macro dilution test.
Another experiment relates to Pichia kudriavzevii. Briefly: Antimicrobial activity against Pichia kudriavzevii by macro dilution test.
Another experiment relates to Candida parapsilosis. Description: Antimicrobial activity against Candida parapsilosis by macro dilution test. The settings on record: Lodderomyces parapsilosis.
The subject of another experiment is Candida albicans. Description: Antimicrobial activity against Candida albicans by macro dilution test.
The next experiment concerns Cryptococcus neoformans. Briefly: Antimicrobial activity against Cryptococcus neoformans by macro dilution test.
The subject of a further experiment is Streptococcus pyogenes. Briefly: Antimicrobial activity against Streptococcus pyogenes by macro dilution test.
The subject of the next experiment is Salmonella typhimurium. Description: Antimicrobial activity against Salmonella enterica subsp. enterica serovar Typhimurium by macro dilution test.

Take `CCCCC/C=C\CC[C@H](O)CCCCCCCC(=O)Oc1ccc2ccc(=O)oc2c1`: the MIC stood at 32 µg/mL (≈ 72.3 µM) with Staphylococcus aureus; 64 µg/mL (≈ 145 µM) against Bacillus subtilis; 128 µg/mL (≈ 289 µM) against Pseudomonas aeruginosa; 32 µg/mL (≈ 72.3 µM) in the experiment with Escherichia coli; 256 µg/mL (≈ 578 µM) in the experiment with Pichia kudriavzevii; 16 µg/mL (≈ 36.2 µM) against Candida parapsilosis. In addition, the MIC against Candida albicans was 2 µg/mL (≈ 4.52 µM); against Cryptococcus neoformans it was 8 µg/mL (≈ 18.1 µM); in the experiment with Streptococcus pyogenes, 32 µg/mL (≈ 72.3 µM); with Salmonella typhimurium, 64 µg/mL (≈ 145 µM).
For the compound `CCCCCC[C@@H](O)C/C=C\CCCCCCCC(=O)Oc1ccc2ccc(=O)oc2c1`, the MIC was found to be 32 µg/mL (≈ 72.3 µM) in the experiment on Staphylococcus aureus; 64 µg/mL (≈ 145 µM) against Bacillus subtilis; 128 µg/mL (≈ 289 µM) in the experiment on Pseudomonas aeruginosa; 64 µg/mL (≈ 145 µM) in the experiment on Escherichia coli; 256 µg/mL (≈ 578 µM) against Pichia kudriavzevii; 16 µg/mL (≈ 36.2 µM) in the experiment on Candida parapsilosis. Moreover, the MIC with Candida albicans worked out at 4 µg/mL (≈ 9.04 µM); in the experiment on Cryptococcus neoformans, 16 µg/mL (≈ 36.2 µM); against Streptococcus pyogenes, 64 µg/mL (≈ 145 µM); with Salmonella typhimurium it was 64 µg/mL (≈ 145 µM).
Regarding `CCCCCCCC/C=C\CCCCCCCC(=O)Oc1ccc2ccc(=O)oc2c1`, the minimal inhibitory concentration (MIC) against Staphylococcus aureus stood at 128 µg/mL (≈ 300 µM); with Bacillus subtilis, 64 µg/mL (≈ 150 µM); in the experiment with Pseudomonas aeruginosa, 128 µg/mL (≈ 300 µM); with Escherichia coli it was 128 µg/mL (≈ 300 µM); in the experiment with Pichia kudriavzevii, 512 µg/mL (≈ 1200 µM); in the experiment with Candida parapsilosis, 64 µg/mL (≈ 150 µM). Moreover, the MIC turned out to be 8 µg/mL (≈ 18.8 µM) against Candida albicans, 32 µg/mL (≈ 75 µM) against Cryptococcus neoformans, 128 µg/mL (≈ 300 µM) against Streptococcus pyogenes and 128 µg/mL (≈ 300 µM) against Salmonella typhimurium.
For `C=CCCCCCCCCC(=O)Oc1ccc2ccc(=O)oc2c1`, the MIC was 128 µg/mL (≈ 390 µM) against Staphylococcus aureus; 64 µg/mL (≈ 195 µM) in the experiment on Bacillus subtilis; 128 µg/mL (≈ 390 µM) with Pseudomonas aeruginosa; 128 µg/mL (≈ 390 µM) against Escherichia coli; 256 µg/mL (≈ 780 µM) against Pichia kudriavzevii; 32 µg/mL (≈ 97.4 µM) against Candida parapsilosis. For the same compound, the MIC in the experiment with Candida albicans amounted to 4 µg/mL (≈ 12.2 µM); in the experiment on Cryptococcus neoformans it was 16 µg/mL (≈ 48.7 µM); in the experiment on Streptococcus pyogenes, 64 µg/mL (≈ 195 µM); in the experiment on Salmonella typhimurium, 64 µg/mL (≈ 195 µM).
With `O=C(N[C@H](CO)[C@H](O)c1ccc([N+](=O)[O-])cc1)C(Cl)Cl` [CHLORAMPHENICOL], the MIC against Staphylococcus aureus worked out at 32 µg/mL (≈ 99 µM); with Bacillus subtilis, 32 µg/mL (≈ 99 µM); with Pseudomonas aeruginosa, 64 µg/mL (≈ 198 µM); against Escherichia coli it was 32 µg/mL (≈ 99 µM); with Streptococcus pyogenes it was 32 µg/mL (≈ 99 µM); in the experiment on Salmonella typhimurium it was 32 µg/mL (≈ 99 µM).
Regarding `OC(Cn1cncn1)(Cn1cncn1)c1ccc(F)cc1F` [FLUCONAZOLE], the MIC stood at 64 µg/mL (≈ 209 µM) against Pichia kudriavzevii, 8 µg/mL (≈ 26.1 µM) in the experiment on Candida parapsilosis, 1 µg/mL (≈ 3.27 µM) in the experiment with Candida albicans and 8 µg/mL (≈ 26.1 µM) against Cryptococcus neoformans.

As usually defined, the MIC is the lowest concentration that inhibits growth of the organism. A lower MIC goes with a more susceptible organism.
